In patent US10087166B2, “Cyclic amine azaheterocyclic carboxamides” (Merck Patent GmbH, priority 2010, dated 2018) one finds IC50 data, which are given here for 41 compounds.

The assay deals with T1, P70S6K (Homo sapiens, UniProt P23443, T412E).
T1 construct: purchased Millipore
T1 sequence (P23443 whole entry T412E): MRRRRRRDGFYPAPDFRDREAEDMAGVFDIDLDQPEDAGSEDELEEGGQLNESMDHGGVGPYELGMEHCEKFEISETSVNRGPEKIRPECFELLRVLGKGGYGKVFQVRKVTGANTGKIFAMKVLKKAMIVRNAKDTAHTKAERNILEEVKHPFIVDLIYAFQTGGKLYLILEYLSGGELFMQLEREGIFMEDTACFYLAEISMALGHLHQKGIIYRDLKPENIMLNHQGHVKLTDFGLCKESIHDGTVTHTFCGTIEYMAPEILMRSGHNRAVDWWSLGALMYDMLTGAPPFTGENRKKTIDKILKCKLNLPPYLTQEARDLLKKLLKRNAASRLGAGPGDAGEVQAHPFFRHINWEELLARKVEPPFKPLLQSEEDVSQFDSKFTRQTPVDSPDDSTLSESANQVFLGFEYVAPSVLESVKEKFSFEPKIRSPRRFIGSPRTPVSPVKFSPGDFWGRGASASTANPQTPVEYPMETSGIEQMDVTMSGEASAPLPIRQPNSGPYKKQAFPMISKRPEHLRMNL
Kind of assay: P70S6K enzyme assay. The class given is biochemical. To be noted: P70S6K T412E mutant 3 nM, 24 μM ATP, FITC-AHA-AKRRRLSSLRA-OH substrate, 90 min at 25° C.; read-out: IC50p70S6K. The method, then: P70S6K inhibitor compounds are diluted and plated in 96 well plates. A reaction mixture including the following components is then added to the compound plate to initiate the enzyme reaction; P70S6K (3 nM, T412E mutant, Millipore) is mixed with 24 μM ATP in an assay buffer containing 100 mM Hepes (pH 7.5), 5 mM MgCl2, 1 mM DTT, 0.015% Brij and 1 μM of the substrate peptide FITC-AHA-AKRRRLSSLRA-OH (derived from the S6 ribosomal protein sequence, FITC=fluorescein isothiocyanate, AHA=6-aminohexanoic acid). The reaction is incubated for 90 min at 25° C., before the addition of 10 mM EDTA to stop the reaction. The proportion of substrate and product (phosphorylated) peptide is analyzed on a Caliper Life Sciences Lab Chip 3000, using a pressure of −1.4 psi, and upstream and downstream voltages of −3000 and −700 respectively. Product peaks are resolved before substrate peaks on the resulting chromatograms.
To assess the inhibitory potential of the compounds, IC50-values were determined, as shown in Chemical Synthesis section above.
Turning to `CCc1nc(N[C@@H]2CNCC[C@H]2c2cccc(C(F)(F)F)c2)c2cccc(C(N)=O)c2n1` (racemic) [compound 125], the IC50 came to 3.9 nM.

For the compound `COc1cccc([C@@H]2CCNC[C@H]2Nc2nc(C)nc3c(C(N)=O)cccc23)c1` (racemic) [compound 126], the IC50 was 4.5 nM.

As to `NC(=O)c1cccc2c(N[C@@H]3CNCC[C@H]3c3ccc(C(F)(F)F)cc3)ncnc12` (racemic) [compound 127], the IC50 came to 2 nM.

`Cc1nc(N[C@@H]2CNCC[C@H]2c2ccc(F)cc2)c2cccc(C(N)=O)c2n1` (racemic) [compound 132]: the IC50 worked out at 5.4 nM.

For `CCc1nc(N[C@@H]2CNCC[C@H]2c2ccc(F)cc2)c2cccc(C(N)=O)c2n1` (racemic) [compound 133], the IC50 was 3.6 nM.

With `Cc1nc(N[C@@H]2CNCC[C@H]2c2ccc(F)cc2)c2cccc(C(N)=O)c2n1` (racemic) [compound 134], the IC50 was determined as 4.2 nM.

Consider `COc1cccc([C@@H]2CCNC[C@H]2Nc2ncnc3c(C(N)=O)cccc23)c1` (racemic) [compound 135], for which the IC50 came out at 4.3 nM.

Turning to `Cc1nc(N[C@@H]2CNCC[C@H]2c2ccccc2F)c2cccc(C(N)=O)c2n1` (racemic) [compound 136], the IC50 was determined as 210 nM.

As for `Cc1nc(N[C@@H]2CNCC[C@H]2c2cccc(C(F)(F)F)c2)c2cccc(C(N)=O)c2n1` (racemic) [compound 138, 2-methyl-4-(((3R,4R)-4-(3-(trifluoromethyl)phenyl)piperidin-3-yl)amino)quinazoline-8-], the IC50 is 2.7 nM.

As to `COc1ccc([C@@H]2CCNC[C@H]2Nc2ncnc3c(C(N)=O)cccc23)cc1OC` (racemic) [compound 139], the IC50 is 18 nM.

On to `NC(=O)c1cccc2c(N[C@@H]3CNCC[C@H]3c3cc(F)cc(C(F)(F)F)c3)ncnc12` (racemic) [compound 140], for which the IC50 came to 3.1 nM.

Turning to `Cc1nc(N[C@@H]2CNCC[C@H]2c2ccc(C(F)(F)F)cc2)c2cccc(C(N)=O)c2n1` (racemic) [compound 141], the IC50 was 2.9 nM.

With `CCc1nc(N[C@@H]2CNCC[C@H]2c2ccccc2F)c2cccc(C(N)=O)c2n1` (racemic) [compound 142], the IC50 was determined as 450 nM.

Turning to `CCc1nc(N[C@@H]2CNCC[C@H]2c2cccc(C)c2)c2cccc(C(N)=O)c2n1` (racemic) [compound 144], the IC50 is 5 nM.

Regarding `Cc1cc(C)cc(C2CCNCC2Nc2ncnc3c(C(N)=O)cccc23)c1` (racemic) [compound 145, 4-((4-(3,5-dimethylphenyl)piperidin-3-yl)amino)quinazoline-8-carboxamide], the IC50 was 10 nM.

Turning to `NC(=O)c1cc(F)cc2c(N[C@@H]3CNCC[C@H]3c3ccccc3)ncnc12` (racemic) [compound 146, 6-fluoro-4-(((3R,4R)-4-phenylpiperidin-3-yl)amino)quinazoline-8-carboxamide], the IC50 is 7.1 nM.

As for `NC(=O)c1cccc2c(N[C@@H]3CNC[C@H]3C(=O)Nc3ccccc3)ncnc12` (relative stereo) [compound 26, trans-4-(4-Phenylcarbamoyl-pyrrolidin-3-ylamino)-quinazoline-8-carboxylic acid amide], the IC50 was found to be 22 nM.

Consider `NC(=O)c1cccc2c(NC3CNCC3c3ccccc3F)ncnc12` (centres unmarked) [compound 4, 4-((4-(2-fluorophenyl)pyrrolidin-3-yl)amino)quinazoline-8-carboxamide], for which the IC50 came out at 3.5 nM.

Turning to `NC(=O)c1cccc2c(NC3CNCC3c3ccc(F)cc3)ncnc12` (centres unmarked) [compound 5, 4-((4-(4-fluorophenyl)pyrrolidin-3-yl)amino)quinazoline-8-carboxamide], the IC50 was 2.6 nM.

In the case of `COc1ccc(C2CNCC2Nc2ncnc3c(C(N)=O)cccc23)cc1` (centres unmarked) [compound 6, 4-((4-(4-methoxyphenyl)pyrrolidin-3-yl)amino)quinazoline-8-carboxamide], the IC50 was 2 nM.

In the case of `COc1cccc(C2CNCC2Nc2ncnc3c(C(N)=O)cccc23)c1` (centres unmarked) [compound 7, 4-((4-(3-methoxyphenyl)pyrrolidin-3-yl)amino)quinazoline-8-carboxamide], the IC50 was 2.6 nM.

As for `COc1ccccc1C1CNCC1Nc1ncnc2c(C(N)=O)cccc12` (centres unmarked) [compound 8, 4-((4-(2-methoxyphenyl)pyrrolidin-3-yl)amino)quinazoline-8-carboxamide], the IC50 came to 18 nM.

`Cc1nc(NC2CNCC2c2ccc(F)cc2)c2cccc(C(N)=O)c2n1` (centres unmarked) [compound 17, 4-((4-(4-fluorophenyl)pyrrolidin-3-yl)amino)-2-methylquinazoline-8-carboxamide]: the IC50 came to 2.4 nM.

As to `COc1ccc(C2CNCC2Nc2nc(C)nc3c(C(N)=O)cccc23)cc1` (centres unmarked) [compound 18, 4-((4-(4-methoxyphenyl)pyrrolidin-3-yl)amino)-2-methylquinazoline-8-carboxamide], the IC50 is 1.8 nM.

For `NC(=O)c1cccc2c(NC3CNCC3c3cccc(F)c3)ccnc12` (centres unmarked) [compound 21, 4-((4-(3-fluorophenyl)pyrrolidin-3-yl)amino)quinoline-8-carboxamide], the IC50 worked out at 13 nM.

`NC(=O)c1cccc2c(NC3CNCC3c3ccccc3F)ccnc12` (centres unmarked) [compound 22, 4-((4-(2-fluorophenyl)pyrrolidin-3-yl)amino)quinoline-8-carboxamide]: the IC50 turned out to be 9.4 nM.

Regarding `COc1ccccc1C1CNCC1Nc1ccnc2c(C(N)=O)cccc12` (centres unmarked) [compound 23, 4-((4-(2-methoxyphenyl)pyrrolidin-3-yl)amino)quinoline-8-carboxamide], the IC50 was 46 nM.

Regarding `NC(=O)c1cccc2c(N[C@@H]3CNC[C@H]3c3cc(F)cc(C(F)(F)F)c3)ncnc12` [compound 46, 4-(((3S,4R)-4-(3-fluoro-5-(trifluoromethyl)phenyl)pyrrolidin-3-yl)amino)quinazoline-8-carboxamide], the IC50 turned out to be 2.6 nM.

For `NC(=O)c1cccc2c(N[C@H]3CNC[C@@H]3c3cc(F)cc(C(F)(F)F)c3)ncnc12` [compound 47, 4-(((3R,4S)-4-(3-fluoro-5-(trifluoromethyl)phenyl)pyrrolidin-3-yl)amino)quinazoline-8-carboxamide], the IC50 stood at 160 nM.

In the case of `NC(=O)c1cccc2c(N[C@@H]3CNC[C@H]3c3cccc(C(F)(F)F)c3)ncnc12` [compound 49, 4-(((3S,4R)-4-(3-(trifluoromethyl)phenyl)pyrrolidin-3-yl)amino)quinazoline-8-carboxamide], the IC50 was 60 nM.

For `NC(=O)c1cccc2c(N[C@H]3CNC[C@@H]3c3cccc(C(F)(F)F)c3)ncnc12` [compound 50, 4-(((3R,4S)-4-(3-(trifluoromethyl)phenyl)pyrrolidin-3-yl)amino)quinazoline-8-carboxamide], the IC50 was 3 nM.

As to `NC(=O)c1cccc2c(N[C@H]3CNC[C@@H]3c3ccc(C(F)(F)F)cc3)ncnc12` [compound 53, 4-(((3R,4S)-4-(4-(trifluoromethyl)phenyl)pyrrolidin-3-yl)amino)quinazoline-8-carboxamide], the IC50 came to 66 nM.

On to `NC(=O)c1cccc2c(N[C@H]3CNC[C@H]3c3ccc(C(F)(F)F)cc3)ncnc12` [compound 54, 4-(((3R,4R)-4-(4-(trifluoromethyl)phenyl)pyrrolidin-3-yl)amino)quinazoline-8-carboxamide], for which the IC50 was 1.3 nM.

For `NC(=O)c1cccc2c(N[C@H]3CNC[C@@H]3c3cccc(OC(F)(F)F)c3)ncnc12` [compound 57], the IC50 was determined as 2.1 nM.

In the case of `NC(=O)c1cccc2c(N[C@H]3CNC[C@H]3c3cccc(OC(F)(F)F)c3)ncnc12` [compound 58, 4-(((3R,4R)-4-(3-(trifluoromethoxy)phenyl)pyrrolidin-3-yl)amino)quinazoline-8-carboxamide], the IC50 was 0.98 nM.

On to `NC(=O)c1cccc2c(N[C@H]3CNC[C@@H]3c3ccc(OC(F)(F)F)cc3)ncnc12` [compound 60, 4-(((3R,4S)-4-(4-(trifluoromethoxy)phenyl)pyrrolidin-3-yl)amino)quinazoline-8-carboxamide], for which the IC50 came out at 120 nM.

As for `NC(=O)c1cccc2c(N[C@@H]3CNC[C@H]3c3ccc(OC(F)(F)F)cc3)ncnc12` [compound 61, 4-(((3S,4R)-4-(4-(trifluoromethoxy)phenyl)pyrrolidin-3-yl)amino)quinazoline-8-carboxamide], the IC50 was 1.5 nM.

As for `COc1ccc([C@@H]2CNC[C@H]2Nc2ncnc3c(C(N)=O)cccc23)cc1F` [compound 62, 4-(((3S,4R)-4-(3-fluoro-4-methoxyphenyl)pyrrolidin-3-yl)amino)quinazoline-8-carboxamide], the IC50 came out at 1.5 nM.

`COc1ccc([C@H]2CNC[C@@H]2Nc2ncnc3c(C(N)=O)cccc23)cc1F` [compound 63, 4-(((3R,4S)-4-(3-fluoro-4-methoxyphenyl)pyrrolidin-3-yl)amino)quinazoline-8-carboxamide]: the IC50 was found to be 810 nM.

Turning to `NC(=O)c1cccc2c(N[C@H]3CNC[C@@H]3c3ccccc3Cl)ncnc12` [compound 65, 4-(((3R,4S)-4-(2-chlorophenyl)pyrrolidin-3-yl)amino)quinazoline-8-carboxamide], the IC50 was determined as 340 nM.

For `NC(=O)c1cccc2c(N[C@@H]3CNC[C@H]3c3ccccc3Cl)ncnc12` [compound 66, 4-(((3S,4R)-4-(2-chlorophenyl)pyrrolidin-3-yl)amino)quinazoline-8-carboxamide], the IC50 worked out at 1.4 nM.
